Measurements reported in publication PMC5084074 (ACS Central Science, 2016).
Converted amounts (≈) assume the structure as drawn.

Key:
[1] = rat models; cited from earlier work
[2] = DOSY NMR of saturated phenytoin with increasing polymer concentration; format: physicochemical; settings: deuterated PBS, poly(NIPAm70-co-DMA30) concentration increased (up to 1000 μg/mL)
[3] = aqueous settings; cited from earlier work

SMILES	AUC over 24 h [1] [μg/mL-min]	translational diffusion coefficient (D0) of phenytoin [2]	solubility [3] [mg/mL]
O=C1NC(c2ccccc2)(c2ccccc2)C(=O)N1COP(=O)(O)O [fosphenytoin]	1860 ± 310	–	–
O=C1NC(=O)C(c2ccccc2)(c2ccccc2)N1 [phenytoin]	–	3.72 ± 0.19 × 10^–10 m^2/s	~0.03 (≈ 119 µM)
